The record followed here is ChEMBL document CHEMBL1806445, “Limonoids from seeds of Thai Xylocarpus moluccensis” (Bioorg Med Chem Lett, 2011).

Assay [1] has as its system Neutrophil. Description: Inhibition of superoxide anion generation in fMLP-stimulated human neutrophils. Type of assay: functional, cell-based.
Assay [2] concerns RAW264.7. Kind of assay: Inhibition of LPS-induced nitric oxide production in mouse RAW264.7 cells assessed as nitrite level after 24 hrs by Griess method. Format: functional, cell-based. To be noted: for IC50: RAW264.7, 24 h. (In general: Nitrite, measured by Griess reagent, commonly stands in for NO production.)
Assay [3] has as its system RAW264.7. Kind of assay: Cytotoxicity against mouse RAW264.7 cells after 24 hrs by MTT assay. Type of assay: cell-based. The conditions noted are these: RAW264.7, 24 h. In general terms: Formazan colour is commonly taken as a measure of viable cells.
The test system of assay [4] is RAW264.7. Kind of assay: Inhibition of LPS-induced nitric oxide production in mouse RAW264.7 cells assessed as nitrite level upto 50 uM after 24 hrs by Griess method. Type of assay: functional, cell-based.

Each structure is given as a SMILES string. Activity calls are given as the source filed them. The rule behind the calls is not given here.

As to `COC(=O)C[C@H]1C(C)(C)[C@H](OC(C)=O)[C@]2(O)CC3=C4CC(=O)O[C@@H](c5ccoc5)[C@]4(C)CC[C@@H]3[C@@]1(C)C2=O` [2-HYDROXYFISSINOLIDE], the IC50 is over 27 µM in assay [1] and 52.1 µM in assay [2]. Further, the inhibition entry in assay [2] was “Dose-dependent effect”.
Turning to `CC1(C)C(=O)C=C[C@]2(C)[C@H]3CC[C@@]4(C)[C@H](c5ccoc5)OC(=O)[C@H]5O[C@]54[C@]3(C)C(=O)C[C@@H]12` [DEACETOXY-7-OXOGEDUNIN], 16.7 µM corresponded to half-maximal inhibition in assay [3] (IC50). Besides, in assay [2], the inhibition result is “Dose-dependent effect” and the IC50 worked out at 22.8 µM.
The matching figures for `CC1(C)C(=O)C=C[C@]2(C)[C@H]3CC[C@@]4(C)[C@H](c5ccoc5)OC(=O)[C@H]5O[C@]54[C@]3(C)[C@H](O)C[C@@H]12` [DEACETYLGEDUNIN]: 37.6 µM, “Dose-dependent effect” and under 10 µM.
Regarding `COC(=O)C[C@H]1C(C)(C)C(=O)[C@@H]2CC3=C4CC(=O)O[C@@H](c5ccoc5)[C@]4(C)CC[C@@H]3[C@@]1(C)C2=O` [MEXICANOLIDE], the inhibition entry in assay [4] is “inactive”. The molecule also returned an IC50 in assay [1] of over 27 µM.
The matching figures for `COC(=O)C[C@H]1[C@]2(C)C[C@]3(O)[C@@](O)(C(=O)C4=C(CC[C@]5(C)C4=CC(=O)O[C@H]5c4ccoc4)[C@]13C)[C@H]2OC(C)=O` [MOLUCCENSIN H]: “inactive” and over 27 µM.
For `COC(=O)C[C@H]1[C@]2(C)C[C@@]3(O)[C@]1(C)[C@H]1CC[C@]4(C)C(=C1C(=O)[C@@]3(OC)[C@H]2OC(C)=O)CC(=O)O[C@H]4c1ccoc1` [MOLUCCENSIN I] the same measures were “inactive” and over 27 µM.
Regarding `COC(=O)C[C@H]1C(C)(C)[C@H](O)[C@@H]2CC3=C4CC(=O)O[C@@H](c5ccoc5)[C@]4(C)CC[C@@H]3[C@@]1(C)C2=O` [PROCERANOLIDE], the IC50 in assay [1] was over 27 µM. In assay [2], the inhibition entry was “Dose-dependent effect” and the IC50 was 50.7 µM.
For `COC(=O)C[C@@H]1C(C)(C)C(=O)C=C[C@@]1(C)[C@H]1CC[C@@]2(C)[C@H](c3ccoc3)OC(=O)C[C@]2(O)[C@]1(C)O` [THAIMOLUCCENSIN A], in assay [2], the inhibition entry is “Dose-dependent effect” and the IC50 worked out at 45.8 µM.
For the molecule `COC(=O)C[C@H]1[C@]2(C)CO[C@@]3(O)[C@]1(C)[C@H]1CC[C@]4(C)[C@@H](CC(=O)O[C@H]4c4ccoc4)C1=C[C@@]3(O)[C@H]2OC(C)=O` [THAIMOLUCCENSIN B], in assay [1], the IC50 was over 27 µM.
With `COC(=O)C[C@H]1[C@]2(C)C[C@@]3(OC(=O)C(C)C)[C@]1(C)[C@H]1CC[C@]4(C)C(=C1C(=O)[C@@]3(O)[C@H]2OC(C)=O)CC(=O)O[C@H]4c1ccoc1` [THAIMOLUCCENSIN C], in assay [1], the IC50 is over 27 µM. Also, in assay [2], the inhibition entry was “Dose-dependent effect” and the IC50 was 32.3 µM.

Broadly, the IC50 is the concentration that inhibits the measured activity by half.
